Data: patent US10604512B2, “3-(1H-indol-2-yl)-1H-indazoles and therapeutic uses thereof” (Samumed, LLC, priority 2015, dated 2020)

Columns and labels:
Type in all cases: cell-based
[1] = system: Wnt activity (Sp5-Luc reporter, TCF/LEF binding sites) in SW480 colon carcinoma cells; experiment: Screening assay for Wnt activity: Sp5-Luc reporter gene assay in stably transduced SW480 colon carcinoma cells; conditions: Homo sapiens; for EC50: overnight incubation, 10-point curve from 10 μM; for inhibition at 10 µM: given where EC50 >10 μM, read-out: percent inhibition at 10 μM
Method in brief: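 SW480 cells stably transduced with a luciferase reporter driven by an Sp5 promoter of eight TCF/LEF sites were plated at 4,000 cells/well in 1% FBS medium. They were exposed overnight at 37° C to a 10-point 1:3 dilution series from 10 μM (0.1% DMSO). Luminescence was normalized to DMSO for four-parameter EC50, or percent inhibition at 10 μM.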

SW480 colon cancer cells = experiment: Cell viability assay (CellTiter-Blue) in SW480 colon cancer cells; conditions: Homo sapiens, 96 h, four days; for inhibition at 10 µM: given where EC50 >10 μM, read-out: percent inhibition at 10 μM; for EC50: CellTiter-Blue
Method in brief: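 Four-day viability readout in SW480 cells: compound at 0.0045–10 μM (1:3 series), DMSO controls in eight replicates, CellTiter-Blue fluorescence after ~3 h. Values are regression-derived EC50s, or percent inhibition at 10 μM when EC50 exceeds 10 μM.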

[2] = system: Primary human fibroblasts derived from IPF patients (LL29 cells) treated with TGF-β1; experiment: Inhibition of the fibrotic process: αSMA staining in TGF-β1-treated primary human fibroblasts from IPF patients (LL29 cells); conditions: Fibroblast, 96 h; for EC50: % αSMA-positive LL29 cells, TGF-β1 20 ng/mL, 4 days; for inhibition at 10 µM: given where EC50 >10 μM, αSMA, LL29 cells, TGF-β1, 4 days, read-out: percent inhibition at 10 μM
Method in brief: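 LL29 IPF-patient fibroblasts in 1% FBS stimulated with TGF-β1 (20 ng/mL) and compound (10 μM–1.87 nM, 0.1% DMSO) for 4 days at 37 °C. SYTOX-positive cells excluded; % αSMA-positive cells imaged, normalized to TGF-β1/DMSO wells; EC50 by nonlinear regression, else % inhibition at 10 μM.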

EC50 [1] [µM] | EC50 (SW480 colon cancer cells) [µM] | Structure (SMILES) | inhibition at 10 µM (SW480 colon cancer cells) [%] | EC50 [2] [µM] | inhibition at 10 µM [2] [%] | inhibition at 10 µM [1] [%]
4.41 | > 10 | O=C(Nc1cncc(-c2ccc3[nH]nc(-c4cc5c(-c6ccncc6)cccc5[nH]4)c3c2)c1)C1CCCCC1 [Compound 135, N-(5-(3-(4-(Pyridin-4-yl)-1H-indol-2-yl)-1H-indazol-5-yl)pyridin-3-yl) cyclohexanecarboxamide] | 12.2 | > 10 | 10.7 | –
0.12 | 0.375 | CC(C)C(=O)Nc1cncc(-c2ccc3[nH]nc(-c4cc5c(-c6ccsc6)cccc5[nH]4)c3c2)c1 [Compound 289, N-(5-(3-(4-(Thiophen-3-yl)-1H-indol-2-yl)-1H-indazol-5-yl)pyridin-3-yl) isobutyramide] | – | 8.4 | – | –
> 10 | > 10 | CN1CCN(c2cccc3[nH]c(-c4n[nH]c5ccc(-c6cncc(NC(=O)CC7CCNCC7)c6)cc45)cc23)CC1 [Compound 669, N-(5-(3-(4-(4-Methylpiperazin-1-yl)-1H-indol-2-yl)-1H-indazol-5-yl)pyridin-3-yl)-2-(piperidin-4-yl)acetamide] | 12.2 | > 10 | 17.7 | 11.7
0.195 | > 10 | O=C(Nc1cncc(-c2ccc3[nH]nc(-c4cc5c(N6CCCCC6)cccc5[nH]4)c3c2)c1)C1CC1 [Compound 188, N-(5-(3-(4-(Piperidin-1-yl)-1H-indol-2-yl)-1H-indazol-5-yl)pyridin-3-yl) cyclopropanecarboxamide] | 29.5 | 5.79 | – | –
1.22 | > 10 | c1ccc(-c2cccc3[nH]c(-c4n[nH]c5ccc(-c6cncnc6)cc45)cc23)nc1 [Compound 167, 3-(4-(Pyridin-2-yl)-1H-indol-2-yl)-5-(pyrimidin-5-yl)-1H-indazole] | 10.9 | 1.21 | – | –
0.655 | > 10 | CC(C)(C)C(=O)Nc1cncc(-c2ccc3[nH]nc(-c4cc5c(-c6ccc(F)cc6)cccc5[nH]4)c3c2)c1 [Compound 36, N-(5-(3-(4-(4-Fluorophenyl)-1H-indol-2-yl)-1H-indazol-5-yl)pyridin-3-yl) pivalamide] | 50.4 | 3.33 | – | –
1.44 | 0.528 | CCNCc1cncc(-c2ccc3[nH]nc(-c4cc5c(-c6ccncc6)cccc5[nH]4)c3c2)c1 [Compound 118, N-((5-(3-(4-(Pyridin-4-yl)-1H-indol-2-yl)-1H-indazol-5-yl)pyridin-3-yl)methyl)ethanamine] | – | 0.888 | – | –
0.1 | > 10 | O=C(Nc1cncc(-c2ccc3[nH]nc(-c4cc5c(-c6cccc(F)c6)cccc5[nH]4)c3c2)c1)C1CC1 [Compound 20, N-(5-(3-(4-(3-Fluorophenyl)-1H-indol-2-yl)-1H-indazol-5-yl)pyridin-3-yl) cyclopropanecarboxamide] | 15.6 | 4.55 | – | –
0.75 | 4.43 | FC1(F)CCN(Cc2cncc(-c3ccc4[nH]nc(-c5cc6c(N7CCCCC7)cccc6[nH]5)c4c3)c2)C1 [Compound 194, 5-(5-((3,3-Difluoropyrrolidin-1-yl)methyl)pyridin-3-yl)-3-(4-(piperidin-1-yl)-1H-indol-2-yl)-1H-indazole] | – | 1.31 | – | –
0.595 | > 10 | O=C(Nc1cncc(-c2ccc3[nH]nc(-c4cc5c(-c6cccc(F)c6)cccc5[nH]4)c3c2)c1)C1CCCCC1 [Compound 23, N-(5-(3-(4-(3-Fluorophenyl)-1H-indol-2-yl)-1H-indazol-5-yl)pyridin-3-yl) cyclohexanecarboxamide] | 20.2 | 3.29 | – | –
0.109 | 0.547 | O=C(Nc1cncc(-c2ccc3[nH]nc(-c4cc5ncccc5[nH]4)c3c2)c1)C1CCC1 [Compound 525, N-(5-(3-(1H-Pyrrolo[3,2-b]pyridin-2-yl)-1H-indazol-5-yl)pyridin-3-yl) cyclobutanecarboxamide] | – | > 10 | 29.4 | –
0.628 | 2.18 | c1cc(-c2ccoc2)c2cc(-c3n[nH]c4ccc(-c5cncc(OC6CCNCC6)c5)cc34)[nH]c2c1 [Compound 716, 3-(4-(Furan-3-yl)-1H-indol-2-yl)-5-(5-(piperidin-4-yloxy)pyridin-3-yl)-1H-indazole] | – | 9.99 | – | –
1.55 | > 10 | O=C(Cc1ccccc1)Nc1cncc(-c2ccc3[nH]nc(-c4cc5ccccc5[nH]4)c3c2)c1 [Compound 262, N-(5-(3-(1H-Indol-2-yl)-1H-indazol-5-yl)pyridin-3-yl)-2-phenylacetamide] | 11.4 | > 10 | 31.8 | –
0.36 | 1.04 | c1ccc2[nH]c(-c3n[nH]c4ccc(-c5cncc(CN6CCCC6)c5)cc34)cc2c1 [Compound 266, 3-(1H-Indol-2-yl)-5-(5-(pyrrolidin-1-ylmethyl)pyridin-3-yl)-1H-indazole] | – | 0.563 | – | –
0.675 | > 10 | c1ccc2[nH]c(-c3n[nH]c4ccc(-c5cncc(CN6CCCCC6)c5)cc34)cc2c1 [Compound 267, 3-(1H-Indol-2-yl)-5-(5-(piperidin-1-ylmethyl)pyridin-3-yl)-1H-indazole] | 7.8 | > 10 | 49.9 | –
0.185 | > 10 | CC(C)(C)CC(=O)Nc1cncc(-c2ccc3[nH]nc(-c4cc5ccccc5[nH]4)c3c2)c1 [Compound 268, N-(5-(3-(1H-Indol-2-yl)-1H-indazol-5-yl)pyridin-3-yl)-3,3-dimethylbutanamide] | 12.4 | 6.89 | – | –
0.15 | > 10 | O=C(Nc1cncc(-c2ccc3[nH]nc(-c4cc5c(-c6ccccn6)cccc5[nH]4)c3c2)c1)c1ccccc1 [Compound 151, N-(5-(3-(4-(Pyridin-2-yl)-1H-indol-2-yl)-1H-indazol-5-yl)pyridin-3-yl) benzamide] | 17.7 | > 10 | 0 | –
0.42 | > 10 | CC(C)CC(=O)Nc1cncc(-c2ccc3[nH]nc(-c4cc5c(-c6ccc(F)cc6)cccc5[nH]4)c3c2)c1 [Compound 30, N-(5-(3-(4-(4-Fluorophenyl)-1H-indol-2-yl)-1H-indazol-5-yl)pyridin-3-yl)-3-methylbutanamide] | 38.2 | 2.52 | – | –
1.42 | 3.28 | CN1CCN(c2cccc3[nH]c(-c4n[nH]c5ccc(-c6cncnc6)cc45)cc23)CC1 [Compound 251, 3-(4-(4-Methylpiperazin-1-yl)-1H-indol-2-yl)-5-(pyrimidin-5-yl)-1H-indazole] | – | 3.04 | – | –
> 10 | 0.494 | CN(C)Cc1cncc(-c2ccc3[nH]nc(-c4cc5c(-c6cccc(F)c6)cccc5[nH]4)c3c2)c1 [Compound 13, 1-(5-(3-(4-(3-Fluorophenyl)-1H-indol-2-yl)-1H-indazol-5-yl)pyridin-3-yl)-N,N-dimethylmethanamine] | – | 0.302 | – | 22.5
